From patent publication US9889108B2, “Compositions and methods for treating non-alcoholic steatohepatitis” (priority 2013, dated 2018)

Experiments:
[1] = Excretion of radioactivity after single oral administration (rats); assay type: in vivo, rat
Protocol: (§1) EPADEL is a product containing ethyl all-cis-5,8,11,14,17-eicosapentaenoate (EPA-E), one of the n-3 essential fatty acids. The preclinical absorption, distribution, metabolism and excretion (ADME) characteristics of EPA-E have been determined primarily in rats.
Consequently, when EPA-E is administered orally to humans, it would appear that it is well absorbed, even though the unchanged ethyl ester form is not detected, and the free form (EPA) is only detected at a very low level, in the blood. Due to this absorption mechanism of essential fatty acids, the administered EPA-E exists as a blood-constituent fatty acid in the total lipids. […] Radioactivity was primarily excreted in expired air (44%) after single oral administration at 30 mg/kg EPA-E with minimal excretion in bile and urine (˜3%) and approximately 20% excreted in feces.
Renal excretion was the elimination route for several minor highly polar metabolites (<0.4%), but EPA-E, EPA, DPA or DHA were not detected in the urine. In feces, EPA-E and EPA, evidently derived from the unabsorbed drug, were detected; however, no DPA or DHA was detected in the feces.

[2] = test system: platelets from rabbits; assay: Platelet anti-aggregation, rabbit platelets; assay type: cell-based
[3] = test system: platelets from humans; assay: Platelet anti-aggregation, human platelets; assay type: cell-based
[4] = test system: arteries in rabbits; assay: Elasticity of arteries in rabbits; assay type: in vivo, rabbit
[5] = test system: platelets from rats; assay: Platelet anti-aggregation, rat platelets; assay type: cell-based
[6] = test system: rats; assay: Lipid lowering in rats; assay type: in vivo, rat
[7] = test system: mouse diet-induced hepatic steatosis model; assay: Mouse diet-induced hepatic steatosis model; assay type: in vivo; conditions: repeat oral administration at ≧0.1 mg/g
[8] = test system: galactosamine-induced steatohepatitis mouse model; assay: Galactosamine-induced steatohepatitis mouse model; assay type: in vivo; conditions: oral administration at 1000 mg/kg; by suppressing triglyceride accumulation
[9] = test system: methionine-choline deficient diet rat model of nonalcoholic steatohepatitis; assay: Methionine-choline deficient diet rat model of nonalcoholic steatohepatitis; assay type: in vivo; conditions: repeat oral administration at 1000 mg/kg; by suppressing inflammation and oxidative stress
[10] = test system: central nervous, autonomic nervous, respiratory and cardiovascular systems; assay: Safety pharmacology studies; assay type: in vivo; conditions: oral doses up to 3000 mg/kg
[11] = test system: hamsters; assay: Lipid lowering in hamsters; assay type: in vivo, hamster
[12] = Absorption, distribution and metabolites after oral 14C-EPA-E in rats; assay type: in vivo, rat
Protocol: as §1
After administration of ^14C-EPA-E into the ligated intestine of rats, the residual radioactivity in the intestine at 24 hours was only 4.6% of the administered dose. Radioactivity transferred to the plasma and lymph was mainly detected in the triglyceride (TG) fraction in the early phase after dosing, while distribution to the free fatty acid (FFA) fraction was slight at all timepoints. […] Orally administered EPA-E was primarily incorporated in adrenal gland lipids as cholesterol esters of the fatty acids eicosapentaenoic acid (EPA), docosapentaenoic acid (DPA) and docosahexaenoic acid (DHA).
After oral administration of ^14C-EPA-E to the rat, EPA, DPA and DHA were detected as metabolites in the total lipid fraction of the plasma and tissues (liver, fat, heart and brain). […] In the total lipid fraction of the liver, the radioactivity originated mainly from EPA, DPA and DHA. Thus, it is considered that EPA, DPA and DHA are the predominant metabolites of ^14C-EPA-E in tissues, as constituent fatty acids of the total lipid fraction.

[13] = test system: subjects with NASH; assay: Phase II double blind, placebo-controlled clinical trial of EPA-E in subjects with NASH; assay type: in vivo, human; design: Efficacy, proportion of responders (NAS Score ≦3 or improvement of ≧2 across at least 2 of NAS components): dose or concentration left out as unconfirmed
Description: The non-alcoholic fatty liver disease activity score (NAS) is defined as the unweighted sum of the values for steatosis (ranging from 0-3), lobular inflammation (ranging from 0-3) and ballooning (ranging from 0-2), thereby providing a range of NAS score of from 0 to 8. […] Alternatively, patients can show an improvement in NAS by a value of ≧2 across at least two of the NAS components, together with no worsening in fibrosis. Alternatively, patients can show an improvement in NAS score by ≧3, 4, 5, 6, 7 or 8. This example provides the protocol used for an ongoing phase II clinical trial, double blind, placebo-controlled study to investigate the safety, efficacy, and pharmacokinetic profile of two doses of EPA-E in subjects with NASH. Up to 70 subjects were enrolled into each treatment arm, for a total of 210 subjects to be enrolled. Block randomization using an interactive voice response system (IVRS) was used to assign patients in a 1:1:1 ratio to two active doses and placebo. Patients were stratified at randomization by presence or absence of diabetes. Patients with diabetes comprised no more than 25% of the total number of patients enrolled. […] Subjects were required to have a liver biopsy with proven NASH in the 6 month period prior to screening. The Pharmacokinetic profile for EPA-E was evaluated in a subgroup of subjects in specified sites. Subjects were approached prior to providing informed consent to determine if they will participate in the PK group subset. Approximately 36 subjects participated in the PK subset evaluation (12 from each treatment arm, to include 6 males and 6 females). In order to support the trial, EPA-E capsules and matching placebo capsules were prepared. EPA-E capsule is an oval soft gelatin capsule containing 300 mg of EPA-E as an active ingredient. […] These capsules are unidentifiable as EPA-E capsules or placebo capsules. Subjects were administered orally 3 capsules 3 times daily, immediately after meals. 1. Diagnosis of definite NASH by the central reading pathologists: • Liver biopsy slides will be submitted for evaluation by the central pathologists according to one of the following criteria: • a. Previous liver biopsies must have been obtained within 6 months prior to informed consent and should be judged by the local pathologist as showing NAS ≧4 with a minimum score of 1 each for steatosis and lobular inflammation plus […] ballooning OR at least 1a sinusoidal fibrosis AND a finding of possible or definite steatohepatitis • b. For liver biopsies performed after informed consent is obtained, all slides will be submitted for reading by the central pathologists in conformity with the independent pathology review charter (IPRC)

[14] = test system: rabbits; assay: Lipid lowering in rabbits; assay type: in vivo, rabbit
[15] = test system: CYP450; conditions: at free concentrations observed in humans; cited from earlier work

CC/C=C\C/C=C\C/C=C\C/C=C\C/C=C\CCCC(=O)OCC [EPA-E, ethyl all-cis-5,8,11,14,17-eicosapentaenoate]
EPA-E and EPA in feces ([1]; derived from the unabsorbed drug, no DPA or DHA detected): detected | EPA-E, EPA, DPA or DHA in the urine ([1]; species not given): not detected | Effect on platelet aggregation [2]: anti-aggregation effects | Effect on platelet aggregation [3]: anti-aggregation effects | Elasticity of arteries [4]: preserve the elasticity of arteries | Effect on platelet aggregation [5]: anti-aggregation effects | Lipid lowering [6]: lower lipids | Fat accumulation [7]: suppressed fat accumulation | Hepatic SREBP-1c levels [7]: suppressing hepatic SREBP-1c levels | Progression of steatohepatitis [8]: retarded progression of steatohepatitis | Fibrosis [9]: inhibited fibrosis | Effect on central nervous, autonomic nervous, respiratory and cardiovascular systems [10]: no effect | Lipid lowering [11]: lower lipids | Absorption ([12]; single oral dose of 14C-EPA-E 30-1000 mg/kg, rats, mainly through the lymphatic route): well-absorbed | Serum EPA/AA ratios, patients with sFas≦9.5 ng/mL versus sFas >9.5 ng/mL ([13]; Day 365, FIG. 21 and FIG. 22): higher | Response rate ([13]; fasting glucose=<125 mg/dL and HbA1c=<6.4, Study arm 1, FIG. 4): higher response to rate | Efficacy, response rate ([13]; fasting glucose=<125 mg/dL and HbA1c=<6.4, Study arm 2, FIG. 4): equivalent to that of Study arm 1 | Efficacy, NASH response (change of NAS score) ([13]; patients with GGT levels=<33 IU/L, Study arm 1 and 2, FIG. 9): higher efficacy | Efficacy, preliminary endpoint achievement rate ([13]; patients with GGT levels=<60 IU/L, Study arm 1 and 2, FIG. 8): higher efficacy | Efficacy, improvement of serum EPA/AA ratio on Day 365 ([13]; patients with GGT ≦33 IU/L, Study arm 2, FIG. 10): higher efficacy | Efficacy, proportion of responders ([13]; patients with HbA1c=<6.4, Study arm 1, FIG. 2): higher efficacy | Efficacy, proportion of responders ([13]; patients with HbA1c=<6.4, Study arm 2, FIG. 2): equivalent to that of Study arm 1 | Efficacy, proportion of responders ([13]; patients with NASH risk score equal to or less than 4.0, especially 3.0, 1800 mg EPA-E, TID, FIG. 19): higher efficacy | Efficacy, proportion of responders ([13]; patients with fasting glucose =<125 mg/dL, Study arm 1, FIG. 3): higher efficacy | Efficacy, proportion of responders ([13]; patients with fasting glucose =<125 mg/dL, Study arm 2, FIG. 3): equivalent to that of Study arm 1 | Efficacy, proportion of responders ([13]; patients with sFas equal to or less 10.0 ng/mL and/or M30 equal to or less 1500 U/L, 1800 mg EPA-E, TID and 2700 mg EPA-E, TID, FIG. 18): higher efficacy | Efficacy, proportion of responders ([13]; patients with serum M30 equal to or less 1500 U/L, especially 900 U/L, more especially 500 U/L, 1800 mg EPA-E, TID, FIG. 17): higher efficacy | Efficacy, proportion of responders ([13]; patients with serum sFas equal to or less 9.5 ng/mL, 1800 mg EPA-E, TID, FIG. 14): higher efficacy | Efficacy, NASH response (change of NAS score) ([13]; patients with serum sFas equal to or less 9.5 ng/mL, Study arm 1 (1800 mg EPA-E, TID), FIG. 16): higher efficacy | Efficacy, proportion of responders ([13]; patients with serum sFas equal to or less 10.0 ng/mL, especially 9.5 ng/mL, 1800 mg EPA-E, TID, FIG. 15): higher efficacy | Efficacy, proportion of responders ([13]; patients without biliary tract disease markers (GGT ≦33 IU/L), Study arm 1 (600 mg TID) and Study arm 2 (900 mg TID), FIG. 7): higher efficacy | Efficacy, proportion of responders (NAS Score ≦3 or improvement of ≧2 across at least 2 of NAS components) ([13]; patients without diabetes or with mild diabetes compared to diabetic patients, Study arm 1, FIG. 1): higher efficacy | Efficacy, proportion of responders ([13]; patients without diabetes or with mild diabetes, Study arm 2 (900 mg EPA-E, TID), FIG. 1): equivalent to that of Study arm 1 | Lipid lowering [14]: lower lipids

CC/C=C\C/C=C\C/C=C\C/C=C\C/C=C\CCCC(=O)O [EPA, eicosapentaenoic acid]
Inhibition of CYP450 [15]: unlikely to inhibit

CC/C=C\C/C=C\C/C=C\C/C=C\C/C=C\CCCC(=O)OCC [^14C-EPA-E]
Unchanged EPA-E in the plasma or tissues ([12]; after oral administration of 14C-EPA-E to the rat, liver, fat, heart and brain): no unchanged EPA-E was found | Distribution of radioactivity in body tissues ([12]; rats, relatively high levels in brown fat, adrenal, liver and pancreas): widely distributed
